# Structures can show the parent of a compound that is named as a salt.
# Target: T1, human P2X7 receptor (Homo sapiens, UniProt Q99572)
# T1 construct: expressed in transfected cells
# T1 sequence (Q99572 1-595): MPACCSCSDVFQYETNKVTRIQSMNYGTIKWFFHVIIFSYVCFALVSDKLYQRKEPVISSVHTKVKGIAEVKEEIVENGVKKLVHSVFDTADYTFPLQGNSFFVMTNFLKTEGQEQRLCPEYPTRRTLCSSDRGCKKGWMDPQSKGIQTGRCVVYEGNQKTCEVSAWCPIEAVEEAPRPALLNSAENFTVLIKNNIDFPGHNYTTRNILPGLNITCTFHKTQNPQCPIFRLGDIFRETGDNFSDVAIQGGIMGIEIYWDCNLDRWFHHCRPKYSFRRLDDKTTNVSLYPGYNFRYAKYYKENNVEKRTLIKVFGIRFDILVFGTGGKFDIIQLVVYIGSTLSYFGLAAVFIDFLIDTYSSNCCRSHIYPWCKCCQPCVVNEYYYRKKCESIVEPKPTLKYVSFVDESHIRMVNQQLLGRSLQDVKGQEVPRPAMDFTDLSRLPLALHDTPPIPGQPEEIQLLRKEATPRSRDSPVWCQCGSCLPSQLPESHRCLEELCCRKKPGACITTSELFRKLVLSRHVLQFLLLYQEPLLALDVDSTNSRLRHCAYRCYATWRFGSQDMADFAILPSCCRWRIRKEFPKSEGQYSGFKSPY
# Experiment: Ethidium Accumulation Assay
# Assay type: cell-based
# Conditions: HEK293 cells stably expressing human recombinant P2X7 receptors; 1 mM ATP; values given as 'about'; read-out: pIC50 for human P2X7 receptor antagonist activity (blocking ATP responses) in the Ethidium Accumulation Assay (converted)
# Method: Studies were performed using NaCl assay buffer of the following composition: 140 mM NaCl, 10 mM HEPES [4-(2-hydroxyethyl)-1-piperazine-1-ethanesulfonic acid], 5 mM N-methyl-D-glucamine, 5.6 mM KCl, 10 mM D-glucose, 0.5 mM CaCl2 (pH 7.4).
# Human Embryonic Kidney (HEK) 293 cells, stably expressing human recombinant P2X7 receptors, were grown in poly-D-lysine pre-treated 96 well plates for 18-24 hours. […] The cells were washed twice with 350 μl of the assay buffer, before addition of 50 μl of the assay buffer containing the putative P2X7 receptor antagonist compound. (A small amount of dimethyl sulfoxide, for initially dissolving the compound, is optionally used and present in this 50 μl test compound sample.) The cells were then incubated at room temperature (19-21° C.) for 30 min before addition of ATP and ethidium (100 μM final assay concentration). The ATP concentration was chosen to be close to the EC80 for the receptor type and was 1 mM for studies on the human P2X7 receptor. Incubations were continued for 8 or 16 min and were terminated by addition of 25 μl of 1.3M sucrose containing 4 mM of the P2X7 receptor antagonist Reactive Black 5 (Aldrich). […] Antagonist pIC50 values for blocking ATP responses were determined using iterative curve fitting techniques.
row,SMILES,IC50
1,"Cc1ccccc1N1CCN(C(=O)c2ccc(Cl)cc2Cl)CC1=O [Example 2, 4-[(2,4-Dichlorophenyl)carbonyl]-1-(2-methylphenyl)-2-piperazinone]",5.01 to 200 nM
2,"O=C(c1cccc(Cl)c1Cl)N1CCN(c2ccc(Cl)cc2)C(=O)C1 [Example 7, 1-(4-Chlorophenyl)-4-[(2,3-dichlorophenyl)carbonyl]-2-piperazinone]",5.01 to 200 nM
3,"O=C(c1cccc(C(F)(F)F)c1Cl)N1CCN(c2ccccc2Cl)C(=O)C1 [Example 9, 1-(2-Chlorophenyl)-4-{[2-chloro-3-(trifluoromethyl)phenyl]carbonyl}-2-piperazinone]",5.01 to 200 nM
4,"O=C(c1cccc(C(F)(F)F)c1Cl)N1CCN(c2ccc(F)cc2Cl)C(=O)C1 [Example 10, 1-(2-Chloro-4-fluorophenyl)-4-{[2-chloro-3-(trifluoromethyl)phenyl]carbonyl}-2-piperazinone]",5.01 to 200 nM
5,"CC(C)N1CCN(C(=O)c2cccc(Cl)c2Cl)CC1=O [Example 18, 4-[(2,3-Dichlorophenyl)carbonyl]-1-(1-methylethyl)-2-piperazinone]",5.01 to 200 nM
6,"O=C1CN(C(=O)c2cccc(Cl)c2Cl)CCN1Cc1ccc(F)cc1Cl [Example 15, 1-[(2-Chloro-4-fluorophenyl)methyl]-4-[(2,3-dichlorophenyl)carbonyl]-2-piperazinone]",5.01 to 200 nM
7,"CC(C)c1ccccc1N1CCN(C(=O)c2cccc(Cl)c2Cl)CC1=O [Example 27, 4-[(2,3-dichlorophenyl)carbonyl]-1-[2-(1-methylethyl)phenyl]-2-piperazinone]",2.51 to 100 nM
8,"O=C(c1ccc(F)cc1Cl)N1CCN(c2cccc3ccccc23)C(=O)C1 [Example 23, 4-[(2-chloro-4-fluorophenyl)carbonyl]-1-(1-naphthalenyl)-2-piperazinone]",2.51 to 100 nM
9,"O=C(c1cccc(Cl)c1Cl)N1CCN(c2cccc(Cl)c2)C(=O)C1 [Example 14, 1-(3-Chlorophenyl)-4-[(2,3-dichlorophenyl)carbonyl]-2-piperazinone]",5.01 to 200 nM
10,"O=C(c1cccc(Cl)c1Cl)N1CCN(c2ccc(F)cc2)C(=O)C1 [Example 13, 4-[(2,3-Dichlorophenyl)carbonyl]-1-(4-fluorophenyl)-2-piperazinone]",5.01 to 200 nM
11,"O=C(c1cccc(C(F)(F)F)c1Cl)N1CCN(c2ccc(F)cc2F)C(=O)C1 [Example 21, 4-{[2-chloro-3-(trifluoromethyl)phenyl]carbonyl}-1-(2,4-difluorophenyl)-2-piperazinone]",2.51 to 100 nM
12,"O=C(c1cccc(C(F)(F)F)c1Cl)N1CCN(c2ccc(F)cc2)C(=O)C1 [Example 12, 4-{[2-Chloro-3-(trifluoromethyl)phenyl]carbonyl}-1-(4-fluorophenyl)-2-piperazinone]",5.01 to 200 nM
13,"O=C(c1ccc(F)cc1Cl)N1CCN(c2ccccc2Cl)C(=O)C1 [Example 5, 4-[(2-Chloro-4-fluorophenyl)carbonyl]-1-(2-chlorophenyl)-2-piperazinone]",5.01 to 200 nM
14,"O=C(c1cccc(C(F)(F)F)c1Cl)N1CCN(c2cccc3ccccc23)C(=O)C1 [Example 24, 4-{[2-chloro-3-(trifluoromethyl)phenyl]carbonyl}-1-(1-naphthalenyl)-2-piperazinone]",2.51 to 100 nM
15,"CN1CCN(C(=O)c2cccc(Cl)c2Cl)CC1=O [Example 16, 4-[(2,3-Dichlorophenyl)carbonyl]-1-methyl-2-piperazinone]",5.01 to 200 nM
16,"Cc1ccccc1N1CCN(C(=O)c2cccc(Cl)c2Cl)CC1=O [Example 4, 4-[(2,3-Dichlorophenyl)carbonyl]-1-(2-methylphenyl)-2-piperazinone]",5.01 to 200 nM
17,"O=C(c1cccc(Cl)c1Cl)N1CCN(c2ccccc2Cl)C(=O)C1 [Example 6, 1-(2-Dichlorophenyl)-4-[(2,3-dichlorophenyl)carbonyl]-2-piperazinone]",5.01 to 200 nM

# The next lines start with the values.
row,IC50,SMILES
1,2.51 to 100 nM,"Cc1ccc(-c2ccc(C)c(N3CCN(C(=O)c4cccc(C(F)(F)F)c4Cl)CC3=O)c2)cn1 [Example 74, 4-{[2-chloro-3-(trifluoromethyl)phenyl]carbonyl}-1-[2-methyl-5-(6-methyl-3-pyridinyl)phenyl]-2-piperazinone hydrochloride]"
2,2.51 to 100 nM,"N#Cc1cc(F)ccc1N1CCN(C(=O)c2cccc(C(F)(F)F)c2Cl)CC1=O [Example 50, 2-(4-{[2-chloro-3-(trifluoromethyl)phenyl]carbonyl}-2-oxo-1-piperazinyl)-5-fluorobenzonitrile]"
3,2.51 to 100 nM,"CC(C)CN1CCN(C(=O)c2cccc(Cl)c2Cl)CC1=O [Example 39, 4-[(2,3-dichlorophenyl)carbonyl]-1-(2-methylpropyl)-2-piperazinone]"
4,2.51 to 100 nM,"CCC(CC)N1CCN(C(=O)c2cccc(C(F)(F)F)c2Cl)CC1=O [Example 47, 4-{[2-chloro-3-(trifluoromethyl)phenyl]carbonyl}-1-(1-ethylpropyl)-2-piperazinone]"
5,2.51 to 100 nM,"N#Cc1cc(F)ccc1N1CCN(C(=O)c2cccc(Cl)c2Cl)CC1=O [Example 38, 2-{-4-[(2,3-dichlorophenyl)carbonyl]-2-oxo-1-piperazinyl}-5-fluorobenzonitrile]"
6,2.51 to 100 nM,"O=C(c1c(Cl)cc(Cl)cc1Cl)N1CCN(c2cc(N3CCOCC3)ccc2Cl)C(=O)C1 [Example 77, 1-[2-chloro-5-(4-morpholinyl)phenyl]-4-[(2,4,6-trichlorophenyl)carbonyl]-2-piperazinone]"
7,2.51 to 100 nM,"Cc1ccc(N2CCCC2)cc1N1CCN(C(=O)c2cccc(C(F)(F)F)c2Cl)CC1=O [Example 73, 4-{[2-chloro-3-(trifluoromethyl)phenyl]carbonyl}-1-[2-methyl-5-(1-pyrrolidinyl)phenyl]-2-piperazinone]"
8,2.51 to 100 nM,"Cc1cc(F)ccc1N1CCN(C(=O)c2cccc(Cl)c2Cl)CC1=O [Example 28, 4-[(2,3-dichlorophenyl)carbonyl]-1-(4-fluoro-2-methylphenyl)-2-piperazinone]"
9,2.51 to 100 nM,"O=C(c1cccc(Cl)c1Cl)N1CCN(c2cc(N3CCOCC3)ccc2Cl)C(=O)C1 [Example 76, 1-[2-chloro-5-(4-morpholinyl)phenyl]-4-[(2,3-dichlorophenyl)carbonyl]-2-piperazinone]"
10,2.51 to 100 nM,"Cc1c(N2CCOCC2)cccc1N1CCN(C(=O)c2cccc(Cl)c2Cl)CC1=O [Example 80, 4-[(2,3-dichlorophenyl)carbonyl]-1-[2-methyl-3-(4-morpholinyl)phenyl]-2-piperazinone]"
11,2.51 to 100 nM,"CCCN1CCN(C(=O)c2cccc(C(F)(F)F)c2Cl)CC1=O [Example 49, 4-{[2-chloro-3-(trifluoromethyl)phenyl]carbonyl}-1-propyl-2-piperazinone]"
12,2.51 to 100 nM,"COc1ccc(I)cc1N1CCN(C(=O)c2cccc(C(F)(F)F)c2Cl)CC1=O [Example 64, 4-{[2-chloro-3-(trifluoromethyl)phenyl]carbonyl}-1-[5-iodo-2-(methyloxy)phenyl]-2-piperazinone]"
13,2.51 to 100 nM,"CN1CCN(C(=O)c2cccc(C(F)(F)F)c2Cl)CC1=O [Example 35, 4-{[2-chloro-3-(trifluoromethyl)phenyl]carbonyl}-1-methyl-2-piperazinon]"
14,2.51 to 100 nM,"O=C1CN(C(=O)c2cccc(C(F)(F)F)c2Cl)CCN1CC1CCCCC1 [Example 66, 4-{[2-chloro-3-(trifluoromethyl)phenyl]carbonyl}-1-(cyclohexylmethyl)-2-piperazinone]"
15,2.51 to 100 nM,"Cc1ccc(N2CCOCC2)cc1N1CCN(C(=O)c2cccc(C(F)(F)F)c2Cl)CC1=O [Example 55, 4-{[2-chloro-3-(trifluoromethyl)phenyl]carbonyl}-1-[2-methyl-5-(4-morpholinyl)phenyl]-2-piperazinone]"
16,2.51 to 100 nM,"Cc1c(N2CCCC2)cccc1N1CCN(C(=O)c2cccc(C(F)(F)F)c2Cl)CC1=O [Example 75, 4-{[2-chloro-3-(trifluoromethyl)phenyl]carbonyl}-1-[2-methyl-3-(1-pyrrolidinyl)phenyl]-2-piperazinone]"
17,2.51 to 100 nM,"Cc1ccc(Br)cc1N1CCN(C(=O)c2cccc(C(F)(F)F)c2Cl)CC1=O [Example 53, 1-(5-bromo-2-methylphenyl)-4-{[2-chloro-3-(trifluoromethyl)phenyl]carbonyl}-2-piperazinone]"
18,2.51 to 100 nM,"Cc1c(Br)cccc1N1CCN(C(=O)c2cccc(C(F)(F)F)c2Cl)CC1=O [Example 46, 1-(3-bromo-2-methylphenyl)-4-{[2-chloro-3-(trifluoromethyl)phenyl]carbonyl}-2-piperazinone]"

# — patent publication US20100311749A1, “4-BENZOYL-1-SUBSTITUTED-PIPERAZIN-2-ONE DERIVATIVES AS P2X7 MODULATORS” (priority 2007, published 2010)
